# Results: patent publication US20240360126A1, “PYRAZOLO[3,4-B]PYRIDINE COMPOUNDS FOR THE TREATMENT OF AUTOIMMUNE DISEASE” (Hoffmann-La Roche Inc., priority 2021, published 2024)
# Columns and labels:
# [1] = Human microsome stability assay; format: in vitro ADME; conditions: for Clearance of Human microsome: 1 μM test compound, 0.5 mg/mL liver microsomal protein, 37° C.
# Description: The human microsomal stability assay is used for early assessment of metabolic stability of a test compound in human liver microsomes.
# Human liver microsomes (Cat. NO.: 452117, Corning, USA; Cat. NO.:H2610, Xenotech, USA) were preincubated with test compound for 10 minutes at 37° C. in 100 mM potassium phosphate buffer, pH 7.4. The reactions were initiated by adding NADPH regenerating system.
# The final incubation mixtures contained 1 μM test compound, 0.5 mg/mL liver microsomal protein, 1 mM MgCl2, 1 mM NADP, 1 unit/mL isocitric dehydrogenase and 6 mM isocitric acid in 100 mM potassium phosphate buffer, pH 7.4. After incubation times of 0, 3, 6, 9, 15 and 30 minutes at 37° C., 300 μL of cold acetonitrile (including internal standard) was added to 100 μL incubation mixture to terminate the reaction. Following precipitation and centrifugation, the amount of compound remaining in the samples were determined by LC-MS/MS. Controls of no NADPH regenerating system at zero and 30 minutes were also prepared and analyzed.
# hERG K+ channel = target: T1, hERG K+ channel (Homo sapiens, UniProt Q12809); assay: hERG channel inhibition assay (patch-clamp, CHO-hERG cells); format: cell-based; conditions: for IC50 / IC20: CHO-hERG cells, whole-cell patch-clamp; for IC20: human, CHO cells stably expressing hERG; for hERG IC20/TLR7 IC50 / hERG IC20/TLR8 IC50 / hERG IC20/TLR9 IC50: safety ratio
# T1 construct: expressed in transfected cells; host or cells: CHO (Chinese hamster ovary)
# T1 sequence (Q12809 whole entry): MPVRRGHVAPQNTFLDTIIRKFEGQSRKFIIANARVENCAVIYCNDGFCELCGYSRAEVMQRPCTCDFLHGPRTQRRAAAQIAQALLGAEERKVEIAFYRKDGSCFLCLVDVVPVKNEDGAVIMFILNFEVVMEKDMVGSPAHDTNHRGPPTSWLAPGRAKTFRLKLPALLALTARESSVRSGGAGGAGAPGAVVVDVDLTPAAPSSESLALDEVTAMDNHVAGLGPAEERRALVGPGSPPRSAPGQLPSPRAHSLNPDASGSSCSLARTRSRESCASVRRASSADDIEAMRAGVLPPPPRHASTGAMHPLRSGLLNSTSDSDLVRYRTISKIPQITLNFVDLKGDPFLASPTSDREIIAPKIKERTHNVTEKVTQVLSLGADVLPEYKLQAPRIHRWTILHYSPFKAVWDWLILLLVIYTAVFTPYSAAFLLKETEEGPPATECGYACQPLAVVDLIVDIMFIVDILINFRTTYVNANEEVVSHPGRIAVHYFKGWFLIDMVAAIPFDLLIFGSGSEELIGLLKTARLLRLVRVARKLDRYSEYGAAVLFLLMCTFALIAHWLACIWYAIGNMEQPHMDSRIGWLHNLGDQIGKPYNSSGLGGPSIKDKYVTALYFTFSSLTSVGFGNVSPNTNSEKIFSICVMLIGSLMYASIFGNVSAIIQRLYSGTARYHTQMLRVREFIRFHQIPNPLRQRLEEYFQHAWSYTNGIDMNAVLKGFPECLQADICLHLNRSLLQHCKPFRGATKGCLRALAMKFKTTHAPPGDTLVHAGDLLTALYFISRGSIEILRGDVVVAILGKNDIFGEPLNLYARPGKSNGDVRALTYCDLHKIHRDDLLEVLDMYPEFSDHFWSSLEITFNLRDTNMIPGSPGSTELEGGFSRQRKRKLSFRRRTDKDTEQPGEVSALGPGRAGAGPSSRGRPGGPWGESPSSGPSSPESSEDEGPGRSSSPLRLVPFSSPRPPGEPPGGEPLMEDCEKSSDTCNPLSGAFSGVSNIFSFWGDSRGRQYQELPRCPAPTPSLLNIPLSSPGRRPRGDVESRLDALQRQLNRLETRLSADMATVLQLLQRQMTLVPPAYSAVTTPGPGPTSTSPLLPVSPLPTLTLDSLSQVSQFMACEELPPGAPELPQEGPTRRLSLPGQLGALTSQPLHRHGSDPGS
# Description: The hERG K^+ channels were cloned in humans and stably expressed in a CHO (Chinese hamster ovary) cell line. CHOhERG cells were used for patch-clamp (voltage-clamp, whole-cell) experiments. Cells were stimulated by a voltage pattern to activate hERG channels and conduct IKhERG Currents (rapid delayed outward rectifier potassium current of the hERG channel). After the cells were stabilized for a few minutes, the amplitude and kinetics of IKhERG were recorded at a stimulation frequency of 0.1 Hz (6 bpm). Thereafter, the test compound was added to the preparation at increasing concentrations. For each concentration, an attempt was made to reach a steady-state effect, usually, this was achieved within 3-10 min at which time the next highest concentration was applied. The amplitude and kinetics of IKhERG are recorded in each concentration of the drug which were compared to the control values (taken as 100%). (references: Redfe W S, Carlsson L, Davis A S, Lynch W G, MacKenzie I, Palethorpe S, Siegl P K, Strang I, Sullivan A T, Wallis R, Camm A J, Hammond T G. 2003; Relationships between preclinical cardiac electrophysiology, clinical QT interval prolongation and torsade de pointes for a broad range of drugs: evidence for a provisional safety margin in drug development. Cardiovasc. Res. 58:32-45, Sanguinetti M C, Tristani-Firouzi M. 2006; hERG potassium channels and cardiac arrhythmia. Nature 440:463-469, Webster R, Leishman D, Walker D. 2002; Towards a drug concentration effect relationship for QT prolongation and torsades de pointes. Curr. Opin. Drug Discov. Devel. 5:116-26).
# TLR9 [2] = target: T2, TLR9 (Homo sapiens, UniProt Q9NR96); assay: Human PBMC cell-based assay; parameters: These cells express TLR7, TLR8, or TLR9, and therefore are natural responders to respective ligand stimulation; endogenous in cells; host or cells: human PBMC from healthy donor whole blood; conditions: CpG ODN 2216 at 1 μM, read-out: hPBMC/TLR9 IC50
# T2 sequence (Q9NR96 26-1032): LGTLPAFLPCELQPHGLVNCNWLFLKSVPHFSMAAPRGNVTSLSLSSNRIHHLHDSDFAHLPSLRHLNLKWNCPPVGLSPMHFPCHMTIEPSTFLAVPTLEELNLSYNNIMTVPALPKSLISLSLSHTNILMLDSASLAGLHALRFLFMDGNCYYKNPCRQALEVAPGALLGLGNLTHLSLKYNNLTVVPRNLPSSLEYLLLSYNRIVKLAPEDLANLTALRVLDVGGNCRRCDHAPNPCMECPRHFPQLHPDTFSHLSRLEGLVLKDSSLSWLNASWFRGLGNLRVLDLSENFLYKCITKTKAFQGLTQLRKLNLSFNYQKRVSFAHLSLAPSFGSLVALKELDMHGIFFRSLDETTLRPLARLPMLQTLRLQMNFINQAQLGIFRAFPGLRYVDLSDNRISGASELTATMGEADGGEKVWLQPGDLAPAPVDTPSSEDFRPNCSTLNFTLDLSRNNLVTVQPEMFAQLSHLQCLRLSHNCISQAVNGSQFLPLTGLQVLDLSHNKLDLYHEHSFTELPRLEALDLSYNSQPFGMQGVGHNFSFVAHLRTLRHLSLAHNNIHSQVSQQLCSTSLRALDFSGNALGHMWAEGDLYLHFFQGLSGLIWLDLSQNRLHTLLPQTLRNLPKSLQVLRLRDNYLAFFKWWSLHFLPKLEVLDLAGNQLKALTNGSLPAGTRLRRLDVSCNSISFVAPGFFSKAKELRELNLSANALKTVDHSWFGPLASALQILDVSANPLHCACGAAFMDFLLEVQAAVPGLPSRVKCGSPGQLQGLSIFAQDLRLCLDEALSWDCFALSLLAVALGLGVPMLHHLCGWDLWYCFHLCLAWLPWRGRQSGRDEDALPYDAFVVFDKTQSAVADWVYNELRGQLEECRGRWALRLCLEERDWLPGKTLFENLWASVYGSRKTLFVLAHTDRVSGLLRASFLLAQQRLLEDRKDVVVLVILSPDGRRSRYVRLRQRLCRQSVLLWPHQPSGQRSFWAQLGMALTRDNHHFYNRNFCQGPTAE
# Text: Unlike the HEK reporter cell lines, human peripheral blood mononuclear cell (PBMC) represents primary human immune cells in blood mainly consisting of lymphocytes, monocytes, and dendritic cells. These cells express TLR7, TLR8, or TLR9, and therefore are natural responders to respective ligand stimulation. Upon activation of these TLRs, PBMCs secrete similar cytokines and chemokines in vitro and in vivo, and therefore the in vitro potency of a TLR7/8/9 antagonist in human PBMC is readily translatable to its pharmacodynamics response in vivo.
# Human peripheral blood mononuclear cells (PBMC) were isolated from freshly-drawn lithium-heparinized (Lithium Heparin Plus blood Collection tube, BD Vacutainer®) healthy donor whole blood by density gradient (Ficoll-Paque™ PLUS, GE Healthcare life Sciences). Briefly, […] was diluted with 25 mL PBS (without Ca^2+, Mg^2+) in a 50 mL conical tube with porous barrier (Leucosep tube, Greiner bio-one), where 15.5 mL Ficoll-Paque was under laid after spinning. Tubes were centrifuged for 20 minutes at 800×g (1946 rpm) with the brake in the off position, and PBMC were collected from the buffy coat. Cells were then washed twice in PBS, and red blood cells were lysed by suspension in 2 mL (Red Blood Cell Lysis Buffer, Alfa Aesar) for 5-10 minutes at room temperature. After a final wash in PBS, PBMC were resuspended at a final concentration of 2×10^6 cells/mL in RPMI-1640 media with GlutaMAX™ (Gibco) supplemented with 10% Fetal Bovine Serum (Sigma) and plated at 150 μL/well (3×10^5 cells/well) in tissue culture treated round bottom 96-well plates (Corning Incorporated). Antagonist compounds (compounds of this invention) solubilized and serial diluted in 100% DMSO were added in duplicate to cells to yield a final concentration of 1% DMSO (v/v). PBMC were incubated with antagonist compounds for 30 minutes at 37° C., 5% CO2 before adding various TLR agonist reagents in 48 μL complete media per well as follows (final concentrations indicated): CpG ODN 2216 (InvivoGen) at 1 μM for TLR9, ORN 06/LyoVec (InvivoGen) at […] for TLR8 and R848 (InvivoGen) at 1 μg/mL for TLR7 and TLR8. PBMC were incubated overnight at 37° C. with 5% C02. Cell culture supernatants were collected, and levels of various human cytokines were assessed by Luminex assay (ProcartaPlex™ Multiplex Immunoassay, Invitrogen) or ELISA procedure according to the manufacturer's recommended protocol (eBioscience, ThermoFisher Scientific). Viability of the cells was also checked with Cell Viability Assay (CellTiter Glo® Luminescent Cell Viability Assay, Promega).
# TLR9 [3] = target: T2, TLR9; assay: TLR9 activity of Novartis WO2018047081 compounds (background comparison)
compound,measurement,setting,value
"C[C@@H]1CN(c2ccnc3c2cnn3C)CC[C@H]1c1ccc(N2CCNCC2)nc1 (relative stereo) [Example 19, 1-methyl-4-[trans-3-methyl-4-(6-piperazin-1-yl-3-pyridyl)-1-piperidyl]pyrazolo[3,4-b]pyridine]",Clearance of Human microsome,[1],6.2 mL/min/kg
"Cc1cc(N2CCC(c3ncc(N4CCNCC4)nc3C)CC2)c2cnn(C)c2n1 [Example 12, 1,6-dimethyl-4-[4-(3-methyl-5-piperazin-1-yl-pyrazin-2-yl)-1-piperidyl]pyrazolo[3,4-b]pyridine]",IC50,hERG K+ channel,> 20 µM
same,IC20,hERG K+ channel,7 µM
same,hERG IC20/TLR7 IC50,hERG K+ channel,205.9
same,hERG IC20/TLR8 IC50,hERG K+ channel,233.3
same,hERG IC20/TLR9 IC50,hERG K+ channel,15.5
same,Clearance of Human microsome,[1],9.7 mL/min/kg
"Cc1cc(N2CC[C@@H](c3ncc(N4CCNC5(CC5)C4)cc3C)[C@H](C)C2)c2cnn(C)c2n1 [Example 30, 4-[(3S,4R)-4-[5-(4,7-diazaspiro[2.5]octan-7-yl)-3-methyl-2-pyridyl]-3-methyl-1-piperidyl]-1,6-dimethyl-pyrazolo[3,4-b]pyridine]",IC50,hERG K+ channel,> 10 µM
same,IC20,hERG K+ channel,4.9 µM
same,hERG IC20/TLR7 IC50,hERG K+ channel,544.4
same,hERG IC20/TLR8 IC50,hERG K+ channel,350.0
same,hERG IC20/TLR9 IC50,hERG K+ channel,11.6
same,IC50,TLR9 [2],0.78 µM
"Cc1cc(N2CCc3c(c(C)nn3CC34CCC(NC(=O)[C@@H]5COCCN5)(CC3)CC4)C2)c2cnn(C)c2n1 [Example N8, reference compound]",human liver microsome stability (in words),[1],poor
same,Clearance of Human microsome,[1],16.3 mL/min/kg
same,TLR9 activity (in words),TLR9 [3],much lower TLR9 activity
"Cc1cc(N2CCc3c(c(C)nn3CC34CCC(N(C)C5CCC5)(CC3)CC4)C2)c2cnn(C)c2n1 [Example N79, reference compound]",human liver microsome stability (in words),[1],poor
same,Clearance of Human microsome,[1],18.2 mL/min/kg
same,TLR9 activity (in words),TLR9 [3],best TLR9 activity
